Reference: ChEMBL document CHEMBL1201862, “PubChem BioAssay data set” (2004)
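How tested: cells in 96-well plates exposed to compound for 48 hours at five concentrations. GI50 marks 50% less growth.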 Activity calls are given as the source filed them. Rule as the data show it: active = GI50 up to about 1.1 µM and inactive = higher.

Assays:
Assay in all cases: NCI-60 cell line screen, 48 h
ACHN = tested on: ACHN
CAKI-1 = tested on: CAKI-1
EKVX = tested on: EKVX
HCT-116 = tested on: HCT-116
HOP-62 = tested on: HOP-62
HT-29 = tested on: HT-29
LOX IMVI = tested on: LOX IMVI
M14 = tested on: M14
Malme-3M = tested on: Malme-3M
OVCAR-3 = tested on: OVCAR-3
OVCAR-5 = tested on: OVCAR-5
SK-MEL-5 = tested on: SK-MEL-5
SK-OV-3 = tested on: SK-OV-3
SNB-75 = tested on: SNB-75
SW-620 = tested on: SW-620
T47D = tested on: T47D
TK-10 = tested on: TK-10
UACC-257 = tested on: UACC-257
UACC-62 = tested on: UACC-62
OVCAR-4 = tested on: OVCAR-4

Measured: GI50

S=c1sc2c(s1)SCc1cccc(n1)CSc1sc(=S)sc1SCc1cccc(n1)CS2
inactive: ACHN > 100 µM | CAKI-1 > 100 µM | EKVX > 100 µM | HCT-116 > 100 µM | HOP-62 > 100 µM | HT-29 > 100 µM | LOX IMVI > 100 µM | M14 > 100 µM | Malme-3M > 100 µM | OVCAR-3 > 100 µM | OVCAR-5 > 100 µM | SK-MEL-5 > 100 µM | SK-OV-3 > 100 µM | SNB-75 > 100 µM | SW-620 > 100 µM | T47D > 100 µM | TK-10 > 100 µM | UACC-257 > 100 µM | UACC-62 > 100 µM

C/C(=N\O)c1ccc(OCc2cc(C(F)(F)F)cc(C(F)(F)F)c2)cc1
inactive: ACHN 25.5 µM | CAKI-1 78.2 µM | EKVX 78.5 µM | HCT-116 31.3 µM | HOP-62 50.1 µM | HT-29 20.1 µM | LOX IMVI 39 µM | M14 41 µM | Malme-3M 41 µM | OVCAR-3 > 100 µM | OVCAR-4 53.8 µM | OVCAR-5 > 100 µM | SK-MEL-5 50.9 µM | SK-OV-3 > 100 µM | SNB-75 51.9 µM | SW-620 32 µM | T47D 75.3 µM | TK-10 > 100 µM | UACC-257 38.5 µM

Cc1csc(CP(=O)(OC(C)C)OC(C)C)n1
inactive: ACHN > 100 µM | CAKI-1 > 100 µM | EKVX > 100 µM | HCT-116 > 100 µM | HOP-62 > 100 µM | HT-29 > 100 µM | LOX IMVI > 100 µM | M14 > 100 µM | Malme-3M > 100 µM | OVCAR-3 > 100 µM | OVCAR-4 > 100 µM | OVCAR-5 > 100 µM | SK-MEL-5 > 100 µM | SK-OV-3 > 100 µM | SNB-75 > 100 µM | SW-620 > 100 µM | T47D > 100 µM | TK-10 > 100 µM | UACC-257 > 100 µM

COc1ccc(C2c3cc4c(cc3OC(NNc3ccccc3)C2C)OCO4)cc1 (centres undefined)
inactive: ACHN 1.93 µM | CAKI-1 5.89 µM | EKVX 3.75 µM | HCT-116 4.44 µM | HOP-62 3.5 µM | HT-29 11.6 µM | LOX IMVI 16.6 µM | M14 6.14 µM | Malme-3M 8.47 µM | OVCAR-3 4.82 µM | OVCAR-5 7.33 µM | SK-MEL-5 17.9 µM | SK-OV-3 > 100 µM | SNB-75 22.6 µM | SW-620 21.7 µM | T47D 6.12 µM | TK-10 8.97 µM | UACC-257 5.79 µM | UACC-62 4.92 µM

Oc1ccc[nH]c1=[Se]
inactive: ACHN 48.6 µM | CAKI-1 69.7 µM | EKVX 25.8 µM | HCT-116 33.9 µM | HOP-62 29.1 µM | HT-29 > 100 µM | LOX IMVI 64.6 µM | M14 47.6 µM | Malme-3M 50.1 µM | OVCAR-3 > 100 µM | OVCAR-5 57.1 µM | SK-MEL-5 39.4 µM | SK-OV-3 87.1 µM | SNB-75 92.3 µM | SW-620 77.6 µM | T47D 22.4 µM | TK-10 55.3 µM | UACC-257 > 100 µM | UACC-62 > 100 µM

COc1ccc(-n2c(=O)c3nc[nH]c3n(-c3ccc(OC)cc3)c2=S)cc1
inactive: ACHN > 100 µM | CAKI-1 > 100 µM | EKVX > 100 µM | HCT-116 > 100 µM | HOP-62 > 100 µM | HT-29 > 100 µM | LOX IMVI > 100 µM | M14 > 100 µM | OVCAR-3 > 100 µM | OVCAR-4 > 100 µM | OVCAR-5 > 100 µM | SK-MEL-5 > 100 µM | SK-OV-3 > 100 µM | SNB-75 > 100 µM | SW-620 > 100 µM | T47D > 100 µM | TK-10 > 100 µM | UACC-257 > 100 µM | UACC-62 > 100 µM
